Entries after “also recorded” stand apart in the source; their conditions may differ. Counter-ions that a name gives are not always drawn.
Columns and labels:
cardiac arrhythmia = conditions: cited from earlier work
[1] = tested on: ouabain-induced arrhythmia; test: ouabain-induced arrhythmia in conscious rabbits, curative effect (reversal); type: in vivo, rabbit; conditions: reversal at least 1 min within 10 minutes
Source text: (§1) Thus, acid-addition salts formed by admixture of a γ-piperidino-butyrophenone base with an equivalent of an acid, suitably in a neutral solvent, are formed with such acids as sulfuric, phosphoric, hydrochloric, hydrobromic, citric, lactic, tartaric, acetic, and related acids. For purposes of this invention, the substituted γ-piperidino-butyrophenones are equivalent to their non-toxic acid-addition salts. The antiarrhythmic activity of the compounds of the present invention compared with that of some clinically used antiarrhythmic drugs was determined as follows.
(§2) Intravenous infusion of ouabain to conscious rabbits produces ventricular arrhythmias of short duration. An increase in the minimal dose of ouabain required to produce an arrhythmia may be taken as a measure of the antiarrhythmic action of the drug.
A substance was considered curative, if it was able to reverse the ouabain-induced arrhythmia for at least 1 min. within 10 minutes after the injection.

[2] = tested on: ouabain-induced arrhythmias; test: ouabain-induced arrhythmia in conscious rabbits, prophylactic effect; type: in vivo, rabbit; conditions: for arrhythmogenic dose of ouabain increased to more than 110 %, number of rabbits: 1 minute before ouabain; for arrhythmogenic dose of ouabain in % of control arrhythmogenic dose, m ± SD: physiol. saline 96 ± 14; for antiarrhythmic activity compared with clinically used drugs: prophylactic and curative effect
Source text: as §1, §2
In all experiments with drug treatment the control dose of ouabain required to produce arrhythmias in an animal was obtained the day before.
The test compound was administered intravenously to rabbits 1 minute before the ouabain challenge, and the arrhythmogenic dose of ouabain after treatment was evaluated in percent of the control arrhythmogenic dose. If this dose amounts to more the 110 % of the control arrhythmogenic dose recorded the day before, the test compound is regarded as having antiarrhymic activity.

[3] = toxic effects of active doses in antiarrhythmic tests
Source text: as §1, with “follows. The compounds were tested for their ability to prevent and reverse ouabain-induced arrhythmias in conscious rabbits, and the method used was essentially according to Basil et al. (Brit. J. Pharmacol. 1974, 50, 323- 33).” for “follows.”

[4] = tested on: cardiac effects of catecholamines; conditions: Tuck 1973; Petersen 1974; cited from earlier work
[5] = tested on: arrhythmia induced by aconitine; conditions: in vivo; cited from earlier work
[6] = tested on: ouabain-induced ventricular tachycardia and fibrillation; conditions: anaesthetized guinea pigs, effective dosage; cited from earlier work
[7] = tested on: arrhythmia induced by aconitine; test: aconitine-induced arrhythmia; type: in vivo; conditions: 0.1-10.0 mg/kg
[8] = tested on: ventricular extrasystoles (VES); test: double-blind clinical test, ventricular extrasystoles in coronary care unit patients; type: in vivo, human patients
Protocol: All patients with ventricular extrasystoles (VES) admitted to a coronary care unit suspected of having acute myocardial infarction are included in the investigation. This was carried out in a double-blind manner with metylperone against placebo (metylperone injectable without metylperone). When a patient arrives at the unit, they are monitored on an oscilloscope for registration of the electrocardiogram (ECG). In a 1 hour long period of observation the patient is characterized in respect to the type and the frequency of the arrhythmia. Depending on this and on the estimated age of the infarction, the patient is distributed to one of four groups. A bottle (metylperone or placebo) is chosen from a box, containing identical bottles, and in the following 10 minutes a total of 50 mg metylperone (or placebo) is injected intravenously as 5 injections with 2 min. intervals. The ECG registration is continued for 2 hours. All ECGes in the three hours period are analyzed manually and the arrhythmias are recorded according to frequency and type. The psychic status and the cardiovascular status are checked several times during the three hours.

tranquilizing effect = conditions: in vivo
ventricular arrhythmia = test: intravenous metylperone in patients with myocardial infarction, ventricular arrhythmia and side effects; type: in vivo, human patients
Source text: Equi-antiarrhythmic doses of previously used drugs produce various cardiovascular side effects as well as agitation and confusion.

CC(C)NCC(O)COc1cccc2ccccc12 (stereo not shown) [Propranolol, propranolol]
antiarrhythmic properties / activity of prior art compounds (cardiac arrhythmia): activity as antiarrhythmic agents | toxic effects of prior art antiarrhythmic drugs (cardiac arrhythmia): various toxic effects | curative effect, number of rabbits reversed/tested ([1]; 0.5 mg/kg i.v.): 1/5 | curative effect, number of rabbits reversed/tested ([1]; 2.0 mg/kg i.v.): 4/4 | arrhythmogenic dose of ouabain increased to more than 110 %, number of rabbits ([2]; 0.5 mg/kg i.v., 4 rabbits): 2 number of rabbits | arrhythmogenic dose of ouabain in % of control arrhythmogenic dose, m ± SD ([2]; 0.5 mg/kg i.v.): 98 ± 28 % of control arrhythmogenic do | arrhythmogenic dose of ouabain increased to more than 110 %, number of rabbits ([2]; 2.0 mg/kg i.v., 4 rabbits): 3 number of rabbits | arrhythmogenic dose of ouabain in % of control arrhythmogenic dose, m ± SD ([2]; 2.0 mg/kg i.v.): 121 ± 26 % of control arrhythmogenic do

C=C[C@H]1C[N@@]2CC[C@H]1C[C@@H]2[C@@H](O)c1ccnc2ccc(OC)cc12 [Quinidine, quinidine]
antiarrhythmic properties / activity of prior art compounds (cardiac arrhythmia): activity as antiarrhythmic agents | toxic effects of prior art antiarrhythmic drugs (cardiac arrhythmia): various toxic effects | curative effect, number of rabbits reversed/tested ([1]; 1.0 mg/kg i.v.): 2/4 | curative effect, number of rabbits reversed/tested ([1]; 10.0 mg/kg i.v.): 4/4 | arrhythmogenic dose of ouabain increased to more than 110 %, number of rabbits ([2]; 1.0 mg/kg i.v., 4 rabbits): 2 number of rabbits | arrhythmogenic dose of ouabain in % of control arrhythmogenic dose, m ± SD ([2]; 1.0 mg/kg i.v.): 104 ± 10 % of control arrhythmogenic do | arrhythmogenic dose of ouabain increased to more than 110 %, number of rabbits ([2]; 10.0 mg/kg i.v., 4 rabbits): 3 number of rabbits | arrhythmogenic dose of ouabain in % of control arrhythmogenic dose, m ± SD ([2]; 10.0 mg/kg i.v.): 131 ± 42 % of control arrhythmogenic do

CCCC1(CC)CCN(CCCC(=O)c2ccc(F)cc2)CC1 [FG 5226, 4-fluoro-γ-(4-ethyl-4-n-propyl-piperidino)-butyrophenone]
toxic effects of the active doses ([3]; active antiarrhythmic doses): In contrast to metylperone and FG 5226 the active doses of the known antiarrhythmic drugs produced various toxic effects | curative effect, number of rabbits reversed/tested ([1]; 0.1 mg/kg i.v.): 3/4 | curative effect, number of rabbits reversed/tested ([1]; 1.0 mg/kg i.v.): 2/4 | arrhythmogenic dose of ouabain increased to more than 110 %, number of rabbits ([2]; 0.1 mg/kg i.v., 4 rabbits): 3 number of rabbits | arrhythmogenic dose of ouabain in % of control arrhythmogenic dose, m ± SD ([2]; 0.1 mg/kg i.v.): 109 ± 21 % of control arrhythmogenic do | antiarrhythmic activity compared with clinically used drugs ([2]; 0.1 mg/kg i.v.): more effective than lidocaine 1-5 mg/kg, procainamide 1- 10 mg/kg, quinidine 1 mg/kg, and propranolol 0.5 mg/kg; also recorded: equiactive (i.e., equally active) with quinidine 10 mg/kg, and propranolol 2 mg/kg | arrhythmogenic dose of ouabain increased to more than 110 %, number of rabbits ([2]; 1.0 mg/kg i.v., 4 rabbits): 1 number of rabbits | arrhythmogenic dose of ouabain in % of control arrhythmogenic dose, m ± SD ([2]; 1.0 mg/kg i.v.): 93 ± 18 % of control arrhythmogenic do

CN(C)CCCN1c2ccccc2Sc2ccc(Cl)cc21 [chlorpromazine]
potentiation of catecholamines [4]: potentiation of catecholamines

NC(=O)OC1CCN(CCCC(=O)c2ccc(F)cc2)C2CCCCC12 (stereo not shown) [L 7810]
antiarrhythmic properties / activity of prior art compounds (cardiac arrhythmia): exert antiarrhythmic properties | inhibition of arrhythmia induced by aconitine [5]: inhibit arrhythmia induced by aconitine | antagonism of ouabain-induced ventricular tachycardia and fibrillation [6]: 0.3 to 3 mg/kg

CCN(CC)CC(=O)Nc1c(C)cccc1C [Lidocaine, lidocaine]
curative effect, number of rabbits reversed/tested ([1]; 1.0 mg/kg i.v.): 1/3 | curative effect, number of rabbits reversed/tested ([1]; 5.0 mg/kg i.v.): 2/4 | arrhythmogenic dose of ouabain increased to more than 110 %, number of rabbits ([2]; 1.0 mg/kg i.v., 4 rabbits): 0 number of rabbits | arrhythmogenic dose of ouabain in % of control arrhythmogenic dose, m ± SD ([2]; 1.0 mg/kg i.v.): 73 ± 25 % of control arrhythmogenic do | arrhythmogenic dose of ouabain increased to more than 110 %, number of rabbits ([2]; 5.0 mg/kg i.v., 5 rabbits): 0 number of rabbits | arrhythmogenic dose of ouabain in % of control arrhythmogenic dose, m ± SD ([2]; 5.0 mg/kg i.v.): 91 ± 21 % of control arrhythmogenic do

CC1CCN(CCCC(=O)c2ccc(F)cc2)CC1 [Metylperone, 4-fluoro-γ-(4-methyl-piperidino)-butyrophenone hydrochloride]
aconitine inhibitory effect [7]: no aconitine inhibitory effect | toxic effects of the active doses ([3]; in vivo): In contrast to metylperone and FG 5226 the active doses of the known antiarrhythmic drugs produced various toxic effects | curative effect, number of rabbits reversed/tested ([1]; 0.1 mg/kg i.v.): 5/5 | curative effect, number of rabbits reversed/tested ([1]; 1.0 mg/kg i.v.): 5/5 | potentiation of catecholamines [4]: does not potentiate the cardiac effects of catecholamines | antiarrhythmic effect in patients with acute myocardial infarction ([8]; 50 mg i.v.): has an antiarrhythmic effect in patients with acute myocardial infarction | mean total VES ± SD, 0 - 60 min. after inj. ([8]; AMI patients, N = 6, 50 mg i.v., placebo 418 ± 394): 212 ± 138 | mean total VES ± SD, 61 - 120 min. after inj. ([8]; AMI patients, N = 6, 50 mg i.v., placebo 644 ± 815): 93 ± 89 | mean total VES ± SD, control hour ([8]; AMI patients, N = 6, before injection (baseline)): 372 ± 148 | mean total VES ± SD, 0 - 60 min. after inj. ([8]; not AMI patients, N = 2, 50 mg i.v., placebo 643 ± 290): 251 ± 85 | mean total VES ± SD, 61 - 120 min. after inj. ([8]; not AMI patients, N = 2, 50 mg i.v., placebo 695 ± 240): 348 ± 28 | mean total VES ± SD, control hour ([8]; not AMI patients, N = 2, before injection (baseline)): 321 ± 18 | tranquilizing effect (tranquilizing effect): has a tranquilizing effect | side effects during treatment of cardiac arrhythmia (ventricular arrhythmia; human, in vivo): lack of side effects | side effects in patients (ventricular arrhythmia; human, in vivo, iv): without producing side effects | inhibition of ventricular arrhythmia in patients with myocardial infarction (ventricular arrhythmia; intravenous injection 10-50 mg): inhibit ventricular arrhythmia in patients with myocardial infarction | activity against ouabain-induced ventricular tachycardia in conscious rabbits ([2]; 0.1 mg/kg): extremely active | arrhythmogenic dose of ouabain increased to more than 110 %, number of rabbits ([2]; 0.1 mg/kg i.v., 4 rabbits): 3 number of rabbits | arrhythmogenic dose of ouabain in % of control arrhythmogenic dose, m ± SD ([2]; 0.1 mg/kg i.v.): 129 ± 20 % of control arrhythmogenic do | antiarrhythmic activity compared with clinically used drugs ([2]; 0.1 mg/kg i.v., hydrochloride): more effective than lidocaine 1-5 mg/kg, procainamide 1- 10 mg/kg, quinidine 1 mg/kg, and propranolol 0.5 mg/kg; also recorded: equiactive (i.e., equally active) with quinidine 10 mg/kg, and propranolol 2 mg/kg | arrhythmogenic dose of ouabain increased to more than 110 %, number of rabbits ([2]; 1.0 mg/kg i.v., 4 rabbits): 3 number of rabbits | arrhythmogenic dose of ouabain in % of control arrhythmogenic dose, m ± SD ([2]; 1.0 mg/kg i.v.): 126 ± 30 % of control arrhythmogenic do

CCN(CC)CCNC(=O)c1ccc(N)cc1 [Procainamide, procainamide]
antiarrhythmic properties / activity of prior art compounds (cardiac arrhythmia): activity as antiarrhythmic agents | toxic effects of prior art antiarrhythmic drugs (cardiac arrhythmia): various toxic effects | curative effect, number of rabbits reversed/tested ([1]; 1.0 mg/kg i.v.): 0/4 | curative effect, number of rabbits reversed/tested ([1]; 10.0 mg/kg i.v.): 2/4 | arrhythmogenic dose of ouabain increased to more than 110 %, number of rabbits ([2]; 1.0 mg/kg i.v., 4 rabbits): 2 number of rabbits | arrhythmogenic dose of ouabain in % of control arrhythmogenic dose, m ± SD ([2]; 1.0 mg/kg i.v.): 111 ± 18 % of control arrhythmogenic do | arrhythmogenic dose of ouabain increased to more than 110 %, number of rabbits ([2]; 10.0 mg/kg i.v., 4 rabbits): 1 number of rabbits | arrhythmogenic dose of ouabain in % of control arrhythmogenic dose, m ± SD ([2]; 10.0 mg/kg i.v.): 104 ± 20 % of control arrhythmogenic do

Source: US4021563A, “Method of treating cardiac arrhythmia with γ-piperidino-butyrophenones” (priority 1975, dated 1977)
